Reference: US10947260B2, “Phosphinolactone derivatives and pharmaceutical uses thereof” (INSTITUT NATIONAL DE LA SANTE ET DE LA RECHERCHE MEDICALE …, priority 2016, dated 2021)

Experiments:
[1] = tested on: mice treated with scopolamine; assay: Spontaneous alternation in Y-maze, scopolamine amnesia model; assay type: in vivo; conditions: IP; scopolamine model
Protocol: FIG. 5: Anti-amnesic effect of compound 3b in mice treated with scopolamine: (a, b) spontaneous alternation in Y-maze, and (c, d) passive avoidance. The mice were given compound 3b (0.03-1.5 mg/kg IP) 10 min before scopolamine (0.5 mg/kg SC), 20 min before the Y-maze session or passive avoidance training. Y-maze test: (a) spontaneous alternation and (b) total number of arm entries; retention of passive avoidance: (c) step-through latency and (d) escape latency. ANOVA: F(6.94)=5.32, p<0.0001 at (a); F(6.94)=10.6, p<0.0001 at (b); H=31.4, p<0.0001 at (c); H=24.3, p<0.001 at (d); n=12-19 per group. *p<0.05, **p<0.01, ***p<0.001 compared with group (Sc.Aβ+V); #p<0.05, ##p<0.01, ###p<0.001 compared with group (Aβ25-35+V); Dunnett test at (a, b) and Dunn at (c, d).
FIG. 6: Analysis of the antagonism of anti-amnesic effects of compound 3b in mice treated with scopolamine: (a, c, e) spontaneous alternation in Y-maze, and (b, d, f) step-through latency at recall session of passive avoidance. The mice were treated with methyllycaconitine (MLA, 1 or 3 mg/kg IP), dihydro-ß-erythroidine (DHßE, 1 or 3 mg/kg IP), or NE100 (1 mg/kg IP), simultaneously with compound 3b (0.1 mg/kg IP) 10 min before scopolamine (S, 0.5 mg/kg SC), 20 min before behavioural session. ANOVA: F(5.87)=7.19, p<0.0001 at (a); H=31.3, p<0.0001 at (b); F(5.82)=5.82, p<0.0001 at (c); H=28.8, p<0.0001 at (d); F(4.77)=10.0, p<0.0001 at (e); H=30.5, p<0.0001 at (f); n=12-17 per group. *p<0.05, **p<0.01, ***p<0.001 compared with group (Sc.Aβ+V); #p<0.05, ##p<0.01, ###p<0.001 compared with group (Aβ25-35+V); Dunnett test at (a, b) and Dunn at (c, d).
The animals were tested for spontaneous alternation performance in a Y-maze, an index of spatial working memory. The Y-maze was in grey PVC. Each arm was 40 cm long, 13 cm high, 3 cm wide at the base and 10 cm wide in the upper part, and converging at an equal angle. Each mouse was placed at one end of an arm and was able to move freely through the maze during an 8-min session. The series of arm entries, including any returns in the same arm were visually analysed. Alternation is defined as being consecutive entries in three different arms. The maximum number of alternations is therefore the total number of arm entries less two, and alternation percentage is calculated as (actual alternations/maximum possible alternations)×100. […]
Finally, a first mechanistic analysis of the pharmacological effect in vivo of compound 3b was carried out. With the objective of confirming that the compound, neuroprotective against amyloid toxicity, could also be anti-amnesic in a pharmacological amnesia model, we first determined its effectiveness against the amnesic effects of scopolamine. […]

APPSwe mice = assay: Object recognition test, APPSwe mice; assay type: in vivo; conditions: 2-month treatment
Protocol: FIG. 9: Spatial learning in pool (a-c) and object recognition (d-f) for APPSwe mice after 2-month treatment with compound 3b. Pool: acquisition profiles of WT mice treated with V and 3b (2 mg/kg) (a) or APPSwe mice (b). (c) Presence in training quadrant (T) and mean in the other quadrants (o) during trial test performed 48 h after the last training session. Friedman non-parametric ANOVA with repeated measures: Fr=21.7, p<0.001 for the group WT/V, Fr=21.8, p<0.001 for the group WT/3b at (a); Fr=13.0, p<0.05 for group APPSwe/V, Fr=12.2, p<0.05 for group APPSwe/3b at (b). […]
The apparatus consisted of four square-shaped arenas (50 cm×50 cm×50 cm in height) made of white plexiglass and placed on a platform equipped with infrared light-emitting diodes (IR). The locomotor activity of the animal and position of the nose were able to be captured by an IR-sensitive camera and analysed using Videotrack and Nosetrack software. […] Each mouse was placed in the open field and exploratory activity and nose position were recorded for 10 min. Activity was analysed in terms of number of contacts with the objects and contact time. […] Each mouse was again placed in the open field and exploratory activity recorded for 10 min. Activity was analysed in similar manner. […]

Compound	effective dose (anti-amnesic) [1] [mg/kg]	decrease in number of contacts with objects, APPSwe animals (APPSwe mice; 1 mg/kg/d)	deficit of novel object preference (contacts, contact time), APPSwe animals (APPSwe mice; session 3)
CC1(C)COP(=O)(c2cccc(Cl)c2)C(C)(C)N1 (racemic) [Compound 3b, (±)-2-(3-Chlorophenyl)-2-oxo-3,3,5,5-tetramethyl-[1,4,2]-oxazaphosphinane]	0.1	–	–
CC1(C)COP(=O)(c2ccc(Cl)cc2)C(C)(C)N1 (racemic) [Compound 3c, (±)-2-(4-Chlorophenyl)-2-oxo-3,3,5,5-tetramethyl-[1,4,2]-oxazaphosphinane]	–	blocked	significantly blocked or attenuated
